Read-outs that look alike come from different tables or passages of the source.
Key:
[1] = test system: cell-to-cell fusion mediated by HIV-1 (HIV-1HXB2 Env); assay: microbe, parasite or virus in culture; format: cell-based; conditions: Human immunodeficiency virus 1; MAGI-CCR5 and HL 2/3 cells, 24 h, β-gal readout
Experimental: To assess the ability of NBD-compounds to block cell-to-cell fusion mediated by HIV-1 we performed cell fusion assay as previously described 3^1-3 with some modifications. […] Following fusion of the two cell lines Tat induce the expression of β-gal enzyme. […] The percent inhibition and the IC50 values were calculated using the GraphPad Prism software.

[2] = test system: panel of HIV-1 ENV-pseudoviruses (subtype A, A/D, A2/D, A/E, A/G, B, C and D); assay: microbe, parasite or virus in culture; format: cell-based
HIV-1 Integrase = biological target: T1, HIV-1 Integrase (Human immunodeficiency virus type 1 group M subtype B, UniProt P04585); assay: HIV-1 Integrase Assay; format: biochemical; conditions: HIV-1 Integrase Assay Kit from ExpressBio
T1 construct: HIV-1 Integrase Assay Kit from ExpressBio; purchased ExpressBio (Thurnmont, Md.)
Experimental: HIV-1 Integrase was performed as per the protocol in the HIV-1 Integrase Assay Kit from ExpressBio (Thurnmont, Md.). (See Table 3)

[3] = test system: lab-adapted and primary HIV-1 isolates; assay: microbe, parasite or virus in culture; conditions: Human immunodeficiency virus 1, PBMC
Experimental: (§1) PBMCs were isolated from the blood of healthy donors at the New York Blood Center by standard density gradient centrifugation using Histopaque-1077 (Sigma-Aldrich). The cells were cultured at 37° C. for 2 hr. […] The PHA-stimulated cells (5×10^4 cells/well) were infected with lab-adapted and primary HIV-1 isolates at 500 TCID50 (0.01 MOI) in the absence or presence of inhibitors at graded concentrations. Culture media were replaced every 3 days with fresh media. The supernatants were collected 7 days post-infection and tested for p24 antigen by ELISA. The percent inhibition of p24 production and IC50 values were calculated by the GraphPad Prism software.

[4] = test system: laboratory-adapted HIV-1 strains; assay: microbe, parasite or virus in culture; format: cell-based
PBMC = assay: Cytotoxicity in PBMC (XTT); format: cell-based; conditions: 7 days
Experimental: For the PBMC toxicity assay we used 5×10^5 cells/ml and the cytotoxicity of the compounds was measured after 7 days of incubation as previously reported^8. Following the addition of XTT the soluble intracellular formazan was quantitated colorimetrically at 450 nm 4 h later. The percent of cytotoxicity and the CC50 values were calculated as above. (See Table 4)

MT-2 cells = assay: Cytotoxicity in MT-2 cells (XTT); format: cell-based; conditions: 4 days
Experimental: Cytotoxicity of test compounds in MT-2 cells was measured a by colorimetric method using XTT [(sodium 3′-(1-(phenylamino)-carbonyl)-3,4-tetrazolium-bis(4-methoxy-6-nitro) benzenesulfonic acid hydrate)] (PolySciences) as previously described^7. Briefly, 100 μl of a test compound at graded concentrations was added to an equal volume of cells (1×10^5 cells/ml) in 96 well plates followed by incubation at 37° C. for 4 days, which ran parallel to the neutralization assay in MT-2. Following the addition of XTT the soluble intracellular formazan was quantitated colorimetrically at 450 nm 4 h later. […] (See Table 4)

[5] = test system: lab-adapted and primary HIV-1 isolates; conditions: read-out: IC50 (μm); Laboratory strain BaL, subtype B, PBMC, co-receptor R5
Experimental: as §1

[6] = Human immunodeficiency virus 1, TZM-bl, read-out: IC50 (μM) ± S.D., subtype A2/D, NIH # 11906, ENV QG393.60M.ENV.B7
[7] = Human immunodeficiency virus 1, TZM-bl, read-out: IC50 (μM) ± S.D., subtype A, NIH # 11888, ENV QB726.70M.ENV.C4
[8] = Human immunodeficiency virus 1, TZM-bl, read-out: IC50 (μM) ± S.D., subtype A, NIH # 11889, ENV QB726.70M.ENV.B3
[9] = Human immunodeficiency virus 1, TZM-bl, read-out: IC50 (μM) ± S.D., subtype A/E (potential), NIH # 11603, ENV CRF01_AE clone 269
[10] = Human immunodeficiency virus 1, TZM-bl, read-out: IC50 (μM) ± S.D., subtype A/G, NIH # 11605, ENV CRF02_AG clone 278
[11] = Human immunodeficiency virus 1, TZM-bl, read-out: IC50 (μM) ± S.D., subtype B, ENV B41
[12] = Human immunodeficiency virus 1, TZM-bl, read-out: IC50 (μM) ± S.D., subtype B, NIH # 11018, ENV QH0692, clone 42
[13] = Human immunodeficiency virus 1, TZM-bl, read-out: IC50 (μM) ± S.D., subtype B, NIH # 11022, ENV PVO, clone 4
[14] = Human immunodeficiency virus 1, TZM-bl, read-out: IC50 (μM) ± S.D., subtype B, NIH # 11035, ENV pREJO4541 clone 67
[15] = Human immunodeficiency virus 1, TZM-bl, read-out: IC50 (μM) ± S.D., subtype C, NIH # 11307, ENV Du172, clone 17
[16] = Human immunodeficiency virus 1, TZM-bl, read-out: IC50 (μM) ± S.D., subtype C, NIH # 11311, ENV ZM233M.PB6
[17] = Human immunodeficiency virus 1, TZM-bl, read-out: IC50 (μM) ± S.D., subtype C, NIH # 11313, ENV ZM53M.PB12
[18] = Human immunodeficiency virus 1, TZM-bl, read-out: IC50 (μM) ± S.D., subtype D, NIH # 11918, ENV QD435.100M.ENV.E1

Work on `Cc1nc(C(NC(=O)c2ccc(-c3ccc(Cl)cc3)[nH]2)C2CCCCN2)sc1CO` (single isomer, unassigned) [Compound 17] yielded an IC50 [1] of 10.8 µM, an IC50 [2, 6] of 0.8 ± 0.3 µM and an IC50 ([2]; Human immunodeficiency virus 1, TZM-bl, read-out: IC50 (μM) ± S.D., subtype A, NIH # 11887, ENV Q259env.w6) of 1.6 ± 0.1 µM. For the same molecule, the IC50 [2, 7] was 1.3 ± 0.3 µM, the IC50 [2, 8] was 1.3 ± 0.4 µM and the IC50 ([2]; Human immunodeficiency virus 1, TZM-bl, read-out: IC50 (μM) ± S.D., subtype A, NIH # 11890, ENV QF495.23M.ENV.A1) was 1.3 ± 0.4 µM. It also gave an IC50 ([2]; Human immunodeficiency virus 1, TZM-bl, read-out: IC50 (μM) ± S.D., subtype A, NIH # 11891, ENV QF495.23M.ENV.A3) of 0.88 ± 0.4 µM, an IC50 ([2]; Human immunodeficiency virus 1, TZM-bl, read-out: IC50 (μM) ± S.D., subtype A, NIH # 11892, ENV QF495.23M.ENV.B2) of 0.6 ± 0.4 µM and an IC50 ([2]; Human immunodeficiency virus 1, TZM-bl, read-out: IC50 (μM) ± S.D., subtype A/D, NIH # 11901, ENV QA790.2041.ENV.A4) of 1.4 ± 0.05 µM. For the same molecule, the IC50 ([2]; Human immunodeficiency virus 1, TZM-bl, read-out: IC50 (μM) ± S.D., subtype A/D, NIH # 11903, ENV QA790.2041.ENV.C8) was 1.6 ± 0.2 µM, the IC50 [2, 9] was 1.5 ± 0.3 µM and the IC50 ([2]; Human immunodeficiency virus 1, TZM-bl, read-out: IC50 (μM) ± S.D., subtype A/G, NIH # 11601, ENV CRF02 AG clone 263) was 1.4 ± 0.3 µM. It also gave an IC50 [2, 10] of 1.3 ± 0.5 µM, an IC50 [2, 11] of 0.68 ± 0.1 µM and an IC50 [2, 12] of 0.52 ± 0.1 µM. It also gave an IC50 [2, 13] of 1.9 ± 0.1 µM, an IC50 ([2]; Human immunodeficiency virus 1, TZM-bl, read-out: IC50 (μM) ± S.D., subtype B, NIH # 11033, ENV pWITO4160 clone 33) of 1.7 ± 0.1 µM and an IC50 [2, 14] of 1.6 ± 0.3 µM. For the same molecule, the IC50 ([2]; Human immunodeficiency virus 1, TZM-bl, read-out: IC50 (μM) ± S.D., subtype B, NIH # 11038, ENV pCAAN5342 clone A2) was 0.6 ± 0.07 µM, the IC50 [2, 15] was 1.9 ± 0.5 µM and the IC50 [2, 16] was 1.3 ± 0.1 µM. The IC50 [2, 17] was 1.5 ± 0.2 µM, the IC50 ([2]; Human immunodeficiency virus 1, TZM-bl, read-out: IC50 (μM) ± S.D., subtype D, NIH # 11916, ENV QD435.100M.ENV.B5) was 1.7 ± 0.5 µM and the IC50 [2, 18] was 3.7 ± 0.1 µM.

With `Cc1nc(C(NC(=O)c2ccc(-c3ccc(Cl)cc3)[nH]2)C2CCCCN2)sc1CO` (single isomer, unassigned) [Compound 19] the IC50 [1] was 7.6 µM, the IC50 [2, 7] was 1.5 ± 0.6 µM and the IC50 [2, 9] was 1.7 ± 0.9 µM. It also gave an IC50 [2, 10] of 1.8 ± 0.2 µM, an IC50 ([2]; Human immunodeficiency virus 1, TZM-bl, read-out: IC50 (μM) ± S.D., subtype B, NIH # 11578, ENV pWEAUd15.410.5017) of 1.7 ± 0.03 µM and an IC50 ([2]; Human immunodeficiency virus 1, TZM-bl, read-out: IC50 (μM) ± S.D., subtype C, NIH # 11310, ENV ZM214M.PL15) of 1.7 ± 0.6 µM. It also gave an IC50 ([2]; Human immunodeficiency virus 1, TZM-bl, read-out: IC50 (μM) ± S.D., subtype C, NIH # 11314, ENV ZM109F.PB4) of 1.9 ± 0.3 µM, an IC50 ([2]; Human immunodeficiency virus 1, TZM-bl, read-out: IC50 (μM) ± S.D., subtype D, NIH # 11912, ENV QA013.701.ENV.M12) of 1.7 ± 0.2 µM and an IC50 ([2]; read-out: IC50 (μM) ± S.D., subtype A2/D, NIH # 11906, ENV QG393.60M.ENV.B7) of 1.4 ± 0.5 µM. For the same molecule, the IC50 ([2]; read-out: IC50 (μM) ± S.D., subtype A, NIH # 11890, ENV QF495.23M.ENV.A1) was 0.86 ± 0.4 µM, the IC50 ([2]; read-out: IC50 (μM) ± S.D., subtype A, NIH # 11891, ENV QF495.23M.ENV.A3) was 1.3 ± 0.3 µM and the IC50 ([2]; read-out: IC50 (μM) ± S.D., subtype A, NIH # 11892, ENV QF495.23M.ENV.B2) was 1.1 ± 0.2 µM. For the same molecule, the IC50 ([2]; read-out: IC50 (μM) ± S.D., subtype A/D, NIH # 11903, ENV QA790.2041.ENV.C8) was 1.6 ± 0.2 µM, the IC50 ([2]; read-out: IC50 (μM) ± S.D., subtype B, ENV B41) was 1.1 ± 0.4 µM and the IC50 ([2]; read-out: IC50 (μM) ± S.D., subtype B, NIH # 11018, ENV QH0692, clone 42) was 0.9 ± 0.3 µM. The IC50 ([2]; read-out: IC50 (μM) ± S.D., subtype B, NIH # 11022, ENV PVO, clone 4) was 1.1 ± 0.2 µM, the IC50 ([2]; read-out: IC50 (μM) ± S.D., subtype B, NIH # 11024, ENV AC10.0, clone 29) was 0.74 ± 0.25 µM and the IC50 ([2]; read-out: IC50 (μM) ± S.D., subtype B, NIH # 11038, ENV pCAAN5342 clone A2) was 0.64 ± 0.01 µM. It also gave an IC50 ([2]; subtype A, NIH # 11889, ENV QB726.70M.ENV.B3, read-out: IC50 (μM) ± S.D.) of 2.4 ± 0.9 µM.

In the case of `Cc1nc(C(CN)NC(=O)c2ccc(-c3ccc(Cl)cc3)[nH]2)sc1CO` (single isomer, unassigned) [Compound 39], the IC50 (HIV-1 Integrase) is reported as > 100 µM.

`Cc1nc(C(NC(=O)c2ccc(-c3ccc(Cl)cc3)[nH]2)C2CCCCN2)sc1CO` (centres unmarked) [Compound 15] gave an IC50 ([3]; read-out: IC50 (μm), Laboratory strain BaL, subtype B, PBMC, co-receptor R5) of 3700 ± 400 nM, an IC50 ([3]; read-out: IC50 (μm), Primary isolate 93TH060, subtype E, PBMC, co-receptor R5) of 5500 ± 1200 nM and an IC50 ([4]; Human immunodeficiency virus 1, MT2, read-out: IC50 (μm), Laboratory strain RF, subtype B, MT-2, co-receptor R5X4) of 7300 ± 600 nM. It also gave an IC50 [2, 6] of 1.7 ± 0.2 µM, an IC50 [2, 8] of 1.5 ± 0.9 µM and an IC50 ([2]; Human immunodeficiency virus 1, TZM-bl, read-out: IC50 (μM) ± S.D., subtype A/G, NIH # 11602, ENV CRF02_AG clone 266) of 1.6 ± 0.5 µM. It also gave an IC50 [2, 11] of 1.1 ± 0.1 µM, an IC50 [2, 12] of 0.7 ± 0.2 µM and an IC50 [2, 13] of 1.7 ± 0.1 µM. The IC50 ([2]; Human immunodeficiency virus 1, TZM-bl, read-out: IC50 (μM) ± S.D., subtype B, NIH # 11023, ENV TRO, clone 11) was 1.3 ± 0.2 µM, the IC50 [2, 14] was 1.8 ± 0.2 µM and the IC50 [2, 15] was 1.5 ± 0.3 µM. It also gave an IC50 [2, 16] of 1.4 ± 0.2 µM, an IC50 [2, 17] of 1.3 ± 0.2 µM and an IC50 [2, 18] of 4 ± 0.8 µM. The IC50 ([2]; read-out: IC50 (μM) ± S.D., subtype B, NIH # 11058, ENV SC422661.8) was 0.6 ± 0.1 µM, the IC50 ([2]; subtype A, ENV BG505-T332N, read-out: IC50 (μM) ± S.D.) was 2.4 ± 1 µM and the IC50 ([2]; subtype D, NIH # 11912, ENV QA013.701.ENV.M12, read-out: IC50 (μM) ± S.D.) was 2.4 ± 0.2 µM. The CC50 (PBMC) was ~36000 nM.

With `CC1(C)CC(NC(=O)C(=O)Nc2ccc(Cl)cc2)CC(C)(C)N1` [NBD-556] the CC50 (MT-2 cells) was > 280000 nM, the IC50 ([4]; Laboratory strain SF2, subtype B, MT-2, co-receptor R5X4, read-out: IC50 (μm)) was 118000 nM and the IC50 [5] was 118000 nM. The CC50 (PBMC) was > 280000 nM and the IC50 (HIV-1 Integrase) was > 200 µM.

Reference: US10576059B2, “Substituted phenylpyrrolecarboxamides with therapeutic activity in HIV” (New York Blood Center, Inc., priority 2014, dated 2020)
